Legend:
[1] = tested on: Ostrinia nubilalis (European corn borer); test: CPE combined with boronic acid derivatives on corn leaves; type: in vivo; settings: for toxicity of the boronic acid derivative alone (in words): some larvae death with 3.10 and 3.7 at 6 DAT; for efficacy on addition of the compound compared with CPE used alone (in words): 1 DAT and 3 DAT at the dose of 15.6 g a.i./ha
Method: Treatments were performed by spraying a volume of mixture corresponding to 200 l/ha. 4 boxes/condition.
Drying 1 h at 20° C.; Deposit of three leaf fragments per box on water agar (4 box/condition); Infection of each leaf fragment with 4 Ostrinia nubilalis (12 larvae/box); Incubation 18° C./28° C. […] The percentage of mortality was calculated for each assessment times. Statistical analysis of the data was performed with XLSTAT® software (ANOVAs followed by Newman-Keuls tests with a threshold of 5%, see Table below).

[2] = molecular target: T1, DPP8 (Homo sapiens, UniProt Q6V1X1); test: Protease selectivity panel; type: biochemical; settings: 100 μM compound, n = 2
T1 construct: purchased ENZO
T1 sequence (Q6V1X1 whole entry): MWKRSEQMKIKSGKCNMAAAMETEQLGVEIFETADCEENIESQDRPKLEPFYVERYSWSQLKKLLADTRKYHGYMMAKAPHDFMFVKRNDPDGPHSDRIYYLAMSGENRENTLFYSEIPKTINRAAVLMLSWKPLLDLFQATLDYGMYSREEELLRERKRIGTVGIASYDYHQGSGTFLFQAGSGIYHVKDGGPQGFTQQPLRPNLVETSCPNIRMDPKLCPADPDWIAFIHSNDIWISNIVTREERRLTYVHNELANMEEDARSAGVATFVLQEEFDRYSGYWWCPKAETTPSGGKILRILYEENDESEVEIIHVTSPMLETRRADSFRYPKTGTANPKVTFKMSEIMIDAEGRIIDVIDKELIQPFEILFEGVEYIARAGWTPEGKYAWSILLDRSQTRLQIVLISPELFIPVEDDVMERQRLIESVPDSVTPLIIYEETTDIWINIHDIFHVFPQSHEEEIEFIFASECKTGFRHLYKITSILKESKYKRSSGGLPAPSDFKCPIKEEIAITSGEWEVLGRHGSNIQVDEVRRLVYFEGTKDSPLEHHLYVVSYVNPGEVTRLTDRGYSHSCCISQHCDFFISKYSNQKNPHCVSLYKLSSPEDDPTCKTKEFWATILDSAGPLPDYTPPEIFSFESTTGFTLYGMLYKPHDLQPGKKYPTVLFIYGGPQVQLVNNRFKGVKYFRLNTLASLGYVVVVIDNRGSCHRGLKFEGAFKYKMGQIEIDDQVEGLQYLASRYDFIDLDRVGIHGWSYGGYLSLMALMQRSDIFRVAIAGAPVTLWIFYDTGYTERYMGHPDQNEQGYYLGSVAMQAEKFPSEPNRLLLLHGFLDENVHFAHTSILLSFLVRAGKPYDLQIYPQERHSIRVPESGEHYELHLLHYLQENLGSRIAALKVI
Method: (§1) Test compounds were dissolved in 100% DMSO to make 10 mM stock. Final compound concentration in assay is […]. Compounds were tested in duplicate wells at single concentration and the final concentration of DMSO in all assays was kept at 1%. Five reference compounds, AEBSF, Carfilzomib, Granzyme B Inhibitor II, Dec-RVKR-CMK, and Teneligliptin hydrobromide, were tested in an identical manner with 8 concentration points at 5× dilutions.

[3] = molecular target: T2, Factor-Xa (Homo sapiens, UniProt P00742); test: Protease selectivity panel; type: biochemical; settings: 100 μM compound, n = 2
T2 construct: Factor Xa; Calbiochem; B76791; purchased Calbiochem
T2 sequence (P00742 235-488 limits assumed): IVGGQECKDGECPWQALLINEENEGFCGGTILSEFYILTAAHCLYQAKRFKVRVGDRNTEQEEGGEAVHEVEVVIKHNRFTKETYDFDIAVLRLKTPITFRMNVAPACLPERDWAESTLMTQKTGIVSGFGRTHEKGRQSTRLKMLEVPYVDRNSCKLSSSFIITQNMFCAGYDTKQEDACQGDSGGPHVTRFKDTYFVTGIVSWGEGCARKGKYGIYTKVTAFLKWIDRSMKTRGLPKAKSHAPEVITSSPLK
T2 sequence (P00742 41-179 partner limits assumed): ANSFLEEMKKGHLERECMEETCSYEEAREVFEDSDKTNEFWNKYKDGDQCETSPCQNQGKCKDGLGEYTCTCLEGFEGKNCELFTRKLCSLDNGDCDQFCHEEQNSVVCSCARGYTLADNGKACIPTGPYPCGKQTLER
Method: as §1

[4] = molecular target: T3, GranzymeB (Homo sapiens, UniProt P10144); test: Protease selectivity panel; type: biochemical; settings: 100 μM compound, n = 2
T3 construct: purchased ENZO
T3 sequence (P10144 21-247): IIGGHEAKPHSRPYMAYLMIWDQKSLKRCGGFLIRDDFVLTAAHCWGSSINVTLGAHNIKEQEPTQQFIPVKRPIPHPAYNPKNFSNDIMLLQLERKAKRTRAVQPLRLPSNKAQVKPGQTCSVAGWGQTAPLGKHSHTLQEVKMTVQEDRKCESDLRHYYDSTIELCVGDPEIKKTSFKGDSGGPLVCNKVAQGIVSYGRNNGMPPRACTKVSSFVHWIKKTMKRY
Method: as §1

[5] = molecular target: T4, GranzymeK (Homo sapiens, UniProt P49863); test: Protease selectivity panel; type: biochemical; settings: 100 μM compound, n = 2
T4 construct: purchased ENZO
T4 sequence (P49863 27-264): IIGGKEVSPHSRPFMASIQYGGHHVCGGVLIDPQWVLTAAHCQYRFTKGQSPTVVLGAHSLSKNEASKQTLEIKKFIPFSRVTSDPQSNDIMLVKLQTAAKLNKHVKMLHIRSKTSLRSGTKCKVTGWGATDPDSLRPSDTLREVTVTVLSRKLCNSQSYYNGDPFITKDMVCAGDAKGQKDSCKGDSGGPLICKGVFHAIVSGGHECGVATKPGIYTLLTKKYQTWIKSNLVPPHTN
Method: as §1

[6] = molecular target: T5, Kallikrein11 (Homo sapiens, UniProt Q9UBX7); test: Protease selectivity panel; type: biochemical; settings: 100 μM compound, n = 2
T5 construct: purchased R&D Systems
T5 sequence (Q9UBX7 54-282): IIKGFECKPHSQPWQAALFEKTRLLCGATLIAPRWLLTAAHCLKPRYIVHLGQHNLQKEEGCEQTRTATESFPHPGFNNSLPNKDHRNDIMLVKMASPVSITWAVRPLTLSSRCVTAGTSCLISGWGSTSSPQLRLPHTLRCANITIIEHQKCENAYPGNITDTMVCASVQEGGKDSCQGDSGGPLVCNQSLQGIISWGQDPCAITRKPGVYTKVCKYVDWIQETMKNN
Method: as §1

[7] = molecular target: T6, PSMB10 (Homo sapiens, UniProt P40306); test: Protease selectivity panel; type: biochemical; settings: 100 μM compound, n = 2
T6 construct: purchased BOSTON-BIOCHEM
Method: as §1

[8] = molecular target: T7, PSMB5 (Homo sapiens, UniProt P28074); test: Protease selectivity panel; type: biochemical; settings: 100 μM compound, n = 2
T7 construct: purchased BOSTON-BIOCHEM
Method: as §1

[9] = molecular target: T8, PSMB6 (Homo sapiens, UniProt P28072); test: Protease selectivity panel; type: biochemical; settings: 100 μM compound, n = 2
T8 construct: purchased BOSTON-BIOCHEM
Method: as §1

[10] = molecular target: T9, PSMB7 (Homo sapiens, UniProt Q99436); test: Protease selectivity panel; type: biochemical; settings: 100 μM compound, n = 2
T9 construct: purchased BOSTON-BIOCHEM
Method: as §1

[11] = molecular target: T10, PSMB8 (Homo sapiens, UniProt P28062); test: Protease selectivity panel; type: biochemical; settings: 100 μM compound, n = 2
T10 construct: purchased BOSTON-BIOCHEM
Method: as §1

[12] = molecular target: T11, PSMB9 (Homo sapiens, UniProt P28065); test: Protease selectivity panel; type: biochemical; settings: 100 μM compound, n = 2
T11 construct: purchased BOSTON-BIOCHEM
Method: as §1

[13] = molecular target: T12, Plasmin (Homo sapiens, UniProt P00747); test: Protease selectivity panel; type: biochemical; settings: 100 μM compound, n = 2
T12 construct: purchased R&D Systems
T12 sequence (P00747 581-810 limits assumed): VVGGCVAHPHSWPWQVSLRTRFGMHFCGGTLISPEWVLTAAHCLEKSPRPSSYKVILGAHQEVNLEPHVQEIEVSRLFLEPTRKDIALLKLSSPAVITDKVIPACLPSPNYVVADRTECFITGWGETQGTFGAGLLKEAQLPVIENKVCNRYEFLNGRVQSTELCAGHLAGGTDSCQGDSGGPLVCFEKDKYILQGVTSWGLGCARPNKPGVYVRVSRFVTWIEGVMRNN
T12 sequence (P00747 97-580 partner limits assumed): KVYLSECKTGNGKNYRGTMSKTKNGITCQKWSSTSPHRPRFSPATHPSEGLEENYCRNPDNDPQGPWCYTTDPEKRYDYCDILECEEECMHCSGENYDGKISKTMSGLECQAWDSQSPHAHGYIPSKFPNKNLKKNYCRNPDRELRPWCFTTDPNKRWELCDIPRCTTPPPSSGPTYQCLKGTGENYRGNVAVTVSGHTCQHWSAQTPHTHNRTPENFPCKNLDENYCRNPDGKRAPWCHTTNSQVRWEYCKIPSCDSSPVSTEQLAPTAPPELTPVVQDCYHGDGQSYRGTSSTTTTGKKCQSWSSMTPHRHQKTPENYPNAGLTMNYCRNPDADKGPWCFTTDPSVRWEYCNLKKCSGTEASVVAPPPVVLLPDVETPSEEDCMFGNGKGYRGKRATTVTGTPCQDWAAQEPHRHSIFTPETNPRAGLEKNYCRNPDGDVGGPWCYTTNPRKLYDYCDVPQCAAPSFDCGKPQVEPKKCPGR
Method: as §1

[14] = molecular target: T13, Prolyl Oligopeptidase (Homo sapiens, UniProt P48147); test: Protease selectivity panel; type: biochemical; settings: 100 μM compound, n = 2
T13 construct: purchased R&D Systems
T13 sequence (P48147 1-710): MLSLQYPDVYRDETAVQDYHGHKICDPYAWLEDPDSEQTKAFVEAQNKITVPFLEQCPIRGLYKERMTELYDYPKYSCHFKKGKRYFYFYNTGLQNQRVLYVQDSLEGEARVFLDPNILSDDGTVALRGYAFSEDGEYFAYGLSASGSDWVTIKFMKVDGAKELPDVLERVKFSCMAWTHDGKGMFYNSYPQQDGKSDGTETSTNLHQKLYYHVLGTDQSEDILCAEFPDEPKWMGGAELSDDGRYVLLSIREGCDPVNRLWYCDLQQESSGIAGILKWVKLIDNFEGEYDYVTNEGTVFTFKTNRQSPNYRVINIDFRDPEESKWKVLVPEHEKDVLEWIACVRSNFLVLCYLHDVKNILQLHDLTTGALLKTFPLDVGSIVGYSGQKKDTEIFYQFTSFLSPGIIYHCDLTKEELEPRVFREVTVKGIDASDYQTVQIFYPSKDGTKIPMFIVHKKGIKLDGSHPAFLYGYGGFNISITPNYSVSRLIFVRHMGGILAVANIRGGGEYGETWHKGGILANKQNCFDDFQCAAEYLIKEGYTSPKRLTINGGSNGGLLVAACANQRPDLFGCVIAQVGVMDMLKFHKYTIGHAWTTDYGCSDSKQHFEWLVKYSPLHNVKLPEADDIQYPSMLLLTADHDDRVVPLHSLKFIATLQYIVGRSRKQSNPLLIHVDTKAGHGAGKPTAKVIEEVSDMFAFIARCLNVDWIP
Method: as §1

[15] = molecular target: T14, Spinesin (Homo sapiens, UniProt Q9H3S3); test: Protease selectivity panel; type: biochemical; settings: 100 μM compound, n = 2
T14 construct: purchased R&D Systems
T14 sequence (Q9H3S3 218-457 limits assumed): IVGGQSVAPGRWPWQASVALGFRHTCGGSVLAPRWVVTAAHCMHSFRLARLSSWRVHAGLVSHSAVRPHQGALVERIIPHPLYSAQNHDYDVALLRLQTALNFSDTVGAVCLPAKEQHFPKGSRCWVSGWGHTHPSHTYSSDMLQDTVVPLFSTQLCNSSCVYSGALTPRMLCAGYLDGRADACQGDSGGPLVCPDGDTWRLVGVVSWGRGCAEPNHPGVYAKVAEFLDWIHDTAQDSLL
Method: as §1

[16] = molecular target: T15, tPA (Homo sapiens, UniProt P00750); test: Protease selectivity panel; type: biochemical; settings: 100 μM compound, n = 2
T15 construct: purchased R&D Systems
T15 sequence (P00750 36-562): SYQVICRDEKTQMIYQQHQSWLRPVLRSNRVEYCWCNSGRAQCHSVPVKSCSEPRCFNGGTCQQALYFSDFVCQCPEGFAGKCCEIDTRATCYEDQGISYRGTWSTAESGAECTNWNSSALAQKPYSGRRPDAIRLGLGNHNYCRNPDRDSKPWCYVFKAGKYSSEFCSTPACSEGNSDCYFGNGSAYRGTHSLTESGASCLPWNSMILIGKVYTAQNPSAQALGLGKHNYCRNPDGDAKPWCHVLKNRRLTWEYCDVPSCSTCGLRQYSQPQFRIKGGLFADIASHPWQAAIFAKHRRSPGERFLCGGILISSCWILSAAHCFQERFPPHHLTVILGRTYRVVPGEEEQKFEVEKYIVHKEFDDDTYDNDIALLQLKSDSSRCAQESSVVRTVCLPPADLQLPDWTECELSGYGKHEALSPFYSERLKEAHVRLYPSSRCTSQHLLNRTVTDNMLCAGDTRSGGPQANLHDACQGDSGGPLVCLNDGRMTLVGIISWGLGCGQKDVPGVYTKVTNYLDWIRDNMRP
Method: as §1

[17] = 1 DAT, CPE 2.5 g a.i./ha, boronic acid, where present, 0.2 mg/ml
[18] = 1 DAT, CPE 6.24 g a.i./ha, boronic acid, where present, 0.2 mg/ml
[19] = 1 DAT, CPE 15.6 g a.i./ha, boronic acid, where present, 0.2 mg/ml
[20] = 1 DAT, CPE 39 g a.i./ha, boronic acid, where present, 0.2 mg/ml
[21] = 3 DAT, CPE 2.5 g a.i./ha, boronic acid, where present, 0.2 mg/ml
[22] = 3 DAT, CPE 6.24 g a.i./ha, boronic acid, where present, 0.2 mg/ml
[23] = 3 DAT, CPE 15.6 g a.i./ha, boronic acid, where present, 0.2 mg/ml
[24] = 3 DAT, CPE 39 g a.i./ha, boronic acid, where present, 0.2 mg/ml
[25] = 6 DAT, CPE 2.5 g a.i./ha, boronic acid, where present, 0.2 mg/ml
[26] = 6 DAT, CPE 6.24 g a.i./ha, boronic acid, where present, 0.2 mg/ml
[27] = 6 DAT, CPE 15.6 g a.i./ha, boronic acid, where present, 0.2 mg/ml
[28] = 6 DAT, CPE 39 g a.i./ha, boronic acid, where present, 0.2 mg/ml
[29] = 1 DAT, boronic acid alone 0.2 mg/ml
[30] = 3 DAT, boronic acid alone 0.2 mg/ml
[31] = 6 DAT, boronic acid alone 0.2 mg/ml
[32] = 1 DAT, boronic acid alone 0.2 mg/ml, 12 larvae/box
[33] = 3 DAT, boronic acid alone 0.2 mg/ml, 12 larvae/box
[34] = 6 DAT, boronic acid alone 0.2 mg/ml, 12 larvae/box

## CCOP(=S)(OCC)Oc1nc(Cl)c(Cl)cc1Cl [CPE, Chlorpyrifos-ethyl]
[1]; [17]
  Evaluation of Larvae number, Mean: 12
  Percentage of efficacy: 0%
[1]; [18]
  Evaluation of Larvae number, Mean: 10.7
  Percentage of efficacy: 11%
[1]; [19]
  Evaluation of Larvae number, Mean: 7.3
  Percentage of efficacy: 40%
[1]; [20]
  Evaluation of Larvae number, Mean: 3.3
  Percentage of efficacy: 72%
[1]; [21]
  Evaluation of Larvae number, Mean: 12
  Percentage of efficacy: 0%
[1]; [22]
  Evaluation of Larvae number, Mean: 9.7
  Percentage of efficacy: 16%
[1]; [23]
  Evaluation of Larvae number, Mean: 7
  Percentage of efficacy: 39%
[1]; [24]
  Evaluation of Larvae number, Mean: 2
  Percentage of efficacy: 83%
[1]; [25]
  Evaluation of Larvae number, Mean: 8
  Percentage of efficacy: 26%
[1]; [26]
  Evaluation of Larvae number, Mean: 4
  Percentage of efficacy: 63%
[1]; [27]
  Evaluation of Larvae number, Mean: 3.5
  Percentage of efficacy: 67%
[1]; [28]
  Evaluation of Larvae number, Mean: 1.3
  Percentage of efficacy: 88%

## OB(O)c1cc(Br)cc(OCc2ccccc2)c1 [Compound 3.9]
[2]
  inhibition at 100 µM: 53%
[3]
  inhibition at 100 µM: 26%
[4]
  inhibition at 100 µM: 17%
[5]
  inhibition at 100 µM: 14%
[6]
  inhibition at 100 µM: -148%
[7]
  inhibition at 100 µM: 78%
[8]
  inhibition at 100 µM: 34%
[9]
  inhibition at 100 µM: 54%
[10]
  inhibition at 100 µM: 70%
[11]
  inhibition at 100 µM: 52%
[12]
  inhibition at 100 µM: 50%
[13]
  inhibition at 100 µM: 16%
[14]
  inhibition at 100 µM: 48%
[15]
  inhibition at 100 µM: 13%
[16]
  inhibition at 100 µM: 40%

## OB(O)c1cc(Br)cc(N2CCCC2)c1 [Compound 3]
[2]
  inhibition at 100 µM: 42%
[3]
  inhibition at 100 µM: 53%
[4]
  inhibition at 100 µM: 3%
[5]
  inhibition at 100 µM: 5%
[6]
  inhibition at 100 µM: -71%
[7]
  inhibition at 100 µM: 43%
[8]
  inhibition at 100 µM: 3%
[9]
  inhibition at 100 µM: 16%
[10]
  inhibition at 100 µM: 39%
[11]
  inhibition at 100 µM: 19%
[12]
  inhibition at 100 µM: 12%
[13]
  inhibition at 100 µM: 13%
[14]
  inhibition at 100 µM: 61%
[15]
  inhibition at 100 µM: 26%
[16]
  inhibition at 100 µM: 26%

## OB(O)c1cc(Br)cc(Oc2ccccc2)c1 [Compound 3.10, 3-Bromo-5-phenoxyfenylboronic acid]
[2]
  inhibition at 100 µM: 37%
[3]
  inhibition at 100 µM: 35%
[4]
  inhibition at 100 µM: 11%
[5]
  inhibition at 100 µM: 3%
[6]
  inhibition at 100 µM: -43%
[7]
  inhibition at 100 µM: 45%
[8]
  inhibition at 100 µM: 2%
[9]
  inhibition at 100 µM: 27%
[10]
  inhibition at 100 µM: 48%
[11]
  inhibition at 100 µM: 49%
[12]
  inhibition at 100 µM: 15%
[13]
  inhibition at 100 µM: -2%
[14]
  inhibition at 100 µM: 30%
[15]
  inhibition at 100 µM: 34%
[16]
  inhibition at 100 µM: 19%
[1]; 0.2 mg/ml
  toxicity of the boronic acid derivative alone (in words): Absence of significant toxicity
[1]
  efficacy on addition of the compound compared with CPE used alone (in words): increased significantly the efficacy
[1]; [29]
  Percentage of efficacy: 0%
[1]; [30]
  Percentage of efficacy: 0%
[1]; [31]
  Percentage of efficacy: 22%

## OB(O)c1ccc(OCc2ccccc2F)c(Cl)c1 [Compound 5, 3-Chloro-4(2′-fluorobenzyloxy) phenylboronic acid]
[1]; 0.2 mg/ml
  toxicity of the boronic acid derivative alone (in words): Absence of significant toxicity
[1]; [29]
  Percentage of efficacy: 0%
[1]; [32]
  Evaluation of Larvae number, Mean: 12
[1]; [30]
  Percentage of efficacy: 0%
[1]; [33]
  Evaluation of Larvae number, Mean: 12
[1]; [31]
  Percentage of efficacy: 4%
[1]; [34]
  Evaluation of Larvae number, Mean: 10.3

## CC(C)Oc1cc(Br)cc(B(O)O)c1 [Compound 3.7, 3-Bromo-5-isopropoxyphenylboronic acid]
[1]; 0.2 mg/ml
  toxicity of the boronic acid derivative alone (in words): Absence of significant toxicity
[1]
  efficacy on addition of the compound compared with CPE used alone (in words): increased significantly the efficacy
[1]; [29]
  Percentage of efficacy: 3%
[1]; [32]
  Evaluation of Larvae number, Mean: 11.7
[1]; [30]
  Percentage of efficacy: 4%
[1]; [33]
  Evaluation of Larvae number, Mean: 11
[1]; [31]
  Percentage of efficacy: 26%
[1]; [34]
  Evaluation of Larvae number, Mean: 8

## OB(O)c1cc(Br)cc(N2CCOCC2)c1 [Compound 3.1]
[1]; [32]
  Evaluation of Larvae number, Mean: 12
[1]; [33]
  Evaluation of Larvae number, Mean: 12
[1]; [34]
  Evaluation of Larvae number, Mean: 8.3
